From ChEMBL document CHEMBL1201862, “PubChem BioAssay data set” (2004) come the findings set out here.

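How tested: cells in 96-well plates exposed to compound for 48 hours at five concentrations. Here, GI50 denotes the concentration required for 50% inhibition of growth.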 Activity calls are given as the source filed them. Cut-off read from the data, not from the text of the source: active = GI50 up to about 1.1 µM and inactive = higher. Bounds are passed on as bounds.

Test systems include 786-0; A549; ACHN; CAKI-1; DU-145; HCC 2998; HCT-116; HT-29; M14; MCF7; MDA-N; MOLT-4; NCI/ADR-RES; SF-268; SF-295; SK-MEL-28; SK-MEL-5; SW-620; TK-10; UACC-257.
What all share (assay): NCI-60 cell line screen, 48 h

For `COC[C@@H](/N=C/C(C)(C)C)C(C)C`, the GI50 in the experiment with 786-0, in the experiment with A549, in the experiment with ACHN, with CAKI-1, with DU-145 and with HCC 2998 was > 100 µM (inactive) in each case. The GI50 with HCT-116, in the experiment on HT-29, with M14, in the experiment with MCF7, in the experiment on MDA-N and in the experiment on MOLT-4 was > 100 µM (inactive) throughout. Also, the GI50 in the experiment with NCI/ADR-RES, in the experiment on SF-268, in the experiment with SF-295, with SK-MEL-28, in the experiment with SK-MEL-5 and in the experiment on SW-620 was > 100 µM (inactive) throughout. Further, the GI50 was 72.1 µM (inactive) in the experiment on TK-10 and 67.3 µM (inactive) in the experiment with UACC-257.
With `CCCCCC(/C=C/C1CCC(=O)C1CC#C[Si](C)(C)C)OCc1ccccc1` (stereo unspecified), the GI50 in the experiment on 786-0 is 14.6 µM (inactive); in the experiment on A549, 21.5 µM (inactive); in the experiment on ACHN it was 17.5 µM (inactive); with CAKI-1 it was 17.9 µM (inactive); in the experiment on DU-145 it was 31.8 µM (inactive); with HCC 2998, 17.9 µM (inactive). Further, the GI50 in the experiment on HCT-116 is 15.8 µM (inactive); with HT-29, 16.3 µM (inactive); in the experiment on M14, 25 µM (inactive); in the experiment with MCF7 it was 19.1 µM (inactive); in the experiment on MDA-N it was 21.1 µM (inactive); with MOLT-4, > 37.8 µM (inactive). Further, the GI50 in the experiment on NCI/ADR-RES was 14.5 µM (inactive); with SF-268, 14.3 µM (inactive); in the experiment with SF-295, 17.1 µM (inactive); in the experiment with SK-MEL-28, 23 µM (inactive); in the experiment on SK-MEL-5 it was 13.2 µM (inactive); in the experiment with SW-620, 24 µM (inactive). The GI50 in the experiment on TK-10 is 22.1 µM (inactive); in the experiment with UACC-257, 17.2 µM (inactive).
`CNC(=O)N(CCC#N)[C@H]1CCCC[C@@H]1N(C(=O)NC)c1ccccc1`: the GI50 in the experiment on 786-0, with A549, in the experiment on ACHN, in the experiment on CAKI-1, with DU-145 and with HCC 2998 was > 100 µM (inactive) throughout. The GI50 in the experiment on HCT-116, in the experiment on HT-29, in the experiment on M14, in the experiment on MCF7, in the experiment on MDA-N and with MOLT-4 was > 100 µM (inactive) in each case. In addition, the GI50 in the experiment on NCI/ADR-RES, in the experiment with SF-295, in the experiment on SK-MEL-28, with SK-MEL-5, with SW-620 and in the experiment on TK-10 was > 100 µM (inactive) each time. Also, in the experiment on UACC-257, the GI50 is > 100 µM (inactive).
Turning to `CCOC(=O)c1sc2nc(SC)nc3c2c1NCN3c1ccc2c(c1)OCCCO2`, the GI50 is 6.31 µM (inactive) in the experiment with 786-0; 9.48 µM (inactive) in the experiment with A549; 32.1 µM (inactive) in the experiment on ACHN; > 100 µM (inactive) in the experiment with CAKI-1; > 100 µM (inactive) in the experiment on DU-145; 26.3 µM (inactive) in the experiment on HCC 2998. In addition, the GI50 was 5.02 µM (inactive) with HCT-116; 38.2 µM (inactive) with M14; > 100 µM (inactive) with MCF7; > 100 µM (inactive) with MDA-N; > 100 µM (inactive) in the experiment with MOLT-4; 22.1 µM (inactive) in the experiment on NCI/ADR-RES. For the same molecule, the GI50 in the experiment with SF-268 was 13.3 µM (inactive); with SF-295, 1.67 µM (inactive); in the experiment on SK-MEL-28, 56.1 µM (inactive); with SK-MEL-5, 12.2 µM (inactive); in the experiment on SW-620, 8.71 µM (inactive); in the experiment on TK-10, 53.6 µM (inactive). Further, in the experiment with UACC-257, the GI50 is > 100 µM (inactive).
`O=C(O)[C@@H]1CSCN1C(=O)[C@@H]1CCC(=S)N1`: the GI50 in the experiment on 786-0, in the experiment with A549, in the experiment with ACHN, in the experiment on CAKI-1, in the experiment on DU-145 and with HCC 2998 was > 100 µM (inactive) throughout. In addition, the GI50 with HT-29, with M14, in the experiment with MCF7, in the experiment with MDA-N, with MOLT-4 and with NCI/ADR-RES was > 100 µM (inactive) in each case. Also, the GI50 in the experiment with SF-268, in the experiment on SF-295, with SK-MEL-28, with SK-MEL-5, with SW-620 and with TK-10 was > 100 µM (inactive) in each case. Besides, the GI50 in the experiment on UACC-257 is > 100 µM (inactive).
Take `CO/N=C/c1c(-c2ccc(Cl)cc2)c(/C=N/OC)n2c1sc1ccccc12`: the GI50 in the experiment with 786-0, in the experiment with A549, in the experiment on ACHN, in the experiment on CAKI-1, in the experiment with DU-145 and in the experiment with HCC 2998 was > 100 µM (inactive) in each case. The GI50 in the experiment on HCT-116 was > 100 µM (inactive); in the experiment on HT-29 it was 81.8 µM (inactive); in the experiment with MCF7, > 100 µM (inactive); in the experiment with MDA-N it was > 100 µM (inactive); in the experiment with MOLT-4, 45.5 µM (inactive); in the experiment with NCI/ADR-RES it was > 100 µM (inactive). Also, the GI50 in the experiment on SF-268, in the experiment on SF-295, in the experiment with SK-MEL-28, with SK-MEL-5, in the experiment on SW-620 and with TK-10 was > 100 µM (inactive) throughout. Moreover, in the experiment on UACC-257, the GI50 is > 100 µM (inactive).
Regarding `C[C@H](CS)C(=O)N1c2ccccc2C[C@H]1C(=O)O`, the GI50 is > 100 µM (inactive) with 786-0; > 100 µM (inactive) in the experiment on A549; > 100 µM (inactive) in the experiment with ACHN; > 100 µM (inactive) in the experiment on CAKI-1; > 100 µM (inactive) with DU-145; 37.5 µM (inactive) with HCC 2998. Besides, the GI50 is > 100 µM (inactive) with HCT-116; 97.1 µM (inactive) with HT-29; > 100 µM (inactive) in the experiment on MCF7; > 100 µM (inactive) in the experiment on MDA-N; > 100 µM (inactive) in the experiment with MOLT-4; > 100 µM (inactive) in the experiment on NCI/ADR-RES. Besides, the GI50 in the experiment with SF-268, in the experiment with SF-295, in the experiment on SK-MEL-28, with SK-MEL-5, in the experiment on SW-620 and in the experiment on TK-10 was > 100 µM (inactive) each time. Further, the GI50 with UACC-257 was > 100 µM (inactive).
Turning to `Cc1cc(S(=O)(=O)Nc2nnc3c(C(F)(F)F)cc(Cl)cn23)c(S)cc1Cl`, the GI50 is > 100 µM (inactive) with 786-0; > 100 µM (inactive) in the experiment with A549; 48.2 µM (inactive) in the experiment with ACHN; 56.6 µM (inactive) with CAKI-1; > 100 µM (inactive) in the experiment on DU-145; > 100 µM (inactive) in the experiment with HCC 2998. Moreover, the GI50 was 57.9 µM (inactive) in the experiment with HCT-116; > 100 µM (inactive) in the experiment with HT-29; 67.1 µM (inactive) in the experiment on M14; > 100 µM (inactive) in the experiment with MCF7; > 100 µM (inactive) in the experiment on MDA-N; 74 µM (inactive) in the experiment with MOLT-4. Besides, the GI50 in the experiment with NCI/ADR-RES, with SF-268, in the experiment with SK-MEL-28, in the experiment on SK-MEL-5, in the experiment on SW-620 and with TK-10 was > 100 µM (inactive) in each case. In the experiment on UACC-257, the GI50 was > 100 µM (inactive).
As for `C/C(=N\O)c1cccc(Nc2nc3ccccc3c3occc23)c1`, the GI50 in the experiment on 786-0 was 12.7 µM (inactive); in the experiment on A549, 7.33 µM (inactive); in the experiment on ACHN, 10.3 µM (inactive); in the experiment on CAKI-1 it was 10.7 µM (inactive); in the experiment on DU-145, 13.2 µM (inactive); in the experiment on HCC 2998, 14.6 µM (inactive). Further, the GI50 is 12.3 µM (inactive) in the experiment on HCT-116; 4.32 µM (inactive) in the experiment with HT-29; 12.7 µM (inactive) in the experiment on M14; 15 µM (inactive) with MCF7; 13.1 µM (inactive) in the experiment with MDA-N; 5.96 µM (inactive) in the experiment with MOLT-4. Further, the GI50 is 13.1 µM (inactive) with NCI/ADR-RES; 11.9 µM (inactive) in the experiment with SF-268; 8.83 µM (inactive) in the experiment with SF-295; 14.3 µM (inactive) in the experiment on SK-MEL-28; 13.6 µM (inactive) in the experiment on SK-MEL-5; 13 µM (inactive) in the experiment with TK-10. In addition, in the experiment on UACC-257, the GI50 is < 0.01 µM (active).
As for `c1cncc(CC2(c3cc4ccccc4[nH]3)OCCO2)c1`, the GI50 is > 100 µM (inactive) in the experiment on 786-0; 81.8 µM (inactive) in the experiment on A549; > 100 µM (inactive) in the experiment on ACHN; > 100 µM (inactive) in the experiment with CAKI-1; > 100 µM (inactive) in the experiment with DU-145; > 100 µM (inactive) in the experiment with HCC 2998. Further, the GI50 with HCT-116, in the experiment on HT-29, in the experiment with MCF7, in the experiment with MDA-N, in the experiment on NCI/ADR-RES and in the experiment with SF-268 was > 100 µM (inactive) each time. Further, the GI50 with SF-295 was > 100 µM (inactive); in the experiment with SK-MEL-28 it was > 100 µM (inactive); in the experiment on SK-MEL-5 it was 61.8 µM (inactive); with SW-620, > 100 µM (inactive); with TK-10, > 100 µM (inactive); in the experiment with UACC-257, 66.5 µM (inactive).
